Test results as given in US20260069588A1, “VEPDEGESTRANT FOR USE IN TREATING CANCER” (Arvinas Operation, Inc., priority 2022, published 2026).

Test: FIH Study Part A dose escalation: adverse events
From the text: TEAEs and TRAEs from the clinical study database were coded to system organ class and preferred term using MedDRA version 22.0 and SAEs from the centralized safety database were coded using MedDRA version 25.0. The severity of adverse events was graded according to the NCI CTCAE version 5.0.

## O=C1CC[C@H](N2Cc3cc(N4CCN(CC5CCN(c6ccc([C@@H]7c8ccc(O)cc8CC[C@@H]7c7ccccc7)cc6)CC5)CC4)ccc3C2=O)C(=O)N1 [Compound A, (S)-3-(5-(4-((1-(4-((1R,2S)-6-hydroxy-2-phenyl-1,2,3,4-tetrahydronaphthalen-1-yl)phenyl)piperidin-4-yl)methyl)piperazin-1-yl)-1-oxoisoindolin-2-yl)piperidine-2,6-dione]
200 mg (N=8)
  TRAE Nausea: 2 n
  TRAE Vomiting: 1 n
360 mg (N=15)
  TEAE Alanine aminotransferase increased: 1 n
  TEAE Arthralgia: 2 n
  TEAE Aspartate aminotransferase increased: 0 n
  TEAE Back pain: 2 n
  TEAE Constipation: 5 n
  TEAE Decreased appetite: 4 n
  TEAE Diarrhea: 4 n
  TEAE Dizziness: 2 n
  TEAE Fatigue: 4 n
  TEAE Headache: 4 n
  TEAE Hot flush: 2 n
  TEAE Hyperglycemia: 2 n
  TEAE Insomnia: 1 n
  TEAE Nausea: 4 n
  TEAE Pain in extremity: 1 n
  TEAE Vomiting: 5 n
  TRAE Arthralgia: 0 n
  TRAE Constipation: 3 n
  TRAE Decreased appetite: 2 n
  TRAE Fatigue: 3 n
  TRAE Hot flush: 1 n
  TRAE Nausea: 3 n
  TRAE Vomiting: 2 n
500 mg (N=22)
  TEAE Alanine aminotransferase increased: 2 n
  TEAE Arthralgia: 4 n
  TEAE Aspartate aminotransferase increased: 1 n
  TEAE Back pain: 6 n
  TEAE Constipation: 10 n
  TEAE Decreased appetite: 2 n
  TEAE Diarrhea: 3 n
  TEAE Dizziness: 2 n
  TEAE Fatigue: 14 n
  TEAE Headache: 3 n
  TEAE Hot flush: 5 n
  TEAE Hyperglycemia: 5 n
  TEAE Insomnia: 4 n
  TEAE Nausea: 9 n
  TEAE Pain in extremity: 5 n
  TEAE Vomiting: 4 n
  TRAE Arthralgia: 2 n
  TRAE Constipation: 3 n
  TRAE Decreased appetite: 1 n
  TRAE Fatigue: 9 n
  TRAE Hot flush: 5 n
  TRAE Nausea: 7 n
  TRAE Vomiting: 3 n
700 mg (N=4)
  TEAE Alanine aminotransferase increased: 0 n
  TEAE Arthralgia: 0 n
  TEAE Aspartate aminotransferase increased: 2 n
  TEAE Back pain: 2 n
  TEAE Constipation: 1 n
  TEAE Decreased appetite: 1 n
  TEAE Diarrhea: 1 n
  TEAE Dizziness: 2 n
  TEAE Fatigue: 2 n
  TEAE Headache: 1 n
  TEAE Hot flush: 0 n
  TEAE Hyperglycemia: 1 n
  TEAE Insomnia: 1 n
  TEAE Nausea: 2 n
  TEAE Pain in extremity: 0 n
  TEAE Vomiting: 1 n
  TRAE Arthralgia: 0 n
  TRAE Constipation: 0 n
  TRAE Decreased appetite: 0 n
  TRAE Fatigue: 2 n
  TRAE Hot flush: 0 n
  TRAE Nausea: 1 n
  TRAE Vomiting: 0 n
6 Jun 2023
  Grade 4 or Grade 5 TRAEs: no Grade 4 or Grade 5 TRAEs
6 Jun 2023, N=83
  Grade 1 TEAEs: 34.9%
  Grade 1 TRAEs: 41.0%
  Grade 2 TEAEs: 41.0%
  Grade 2 TRAEs: 24.1%
  Grade 3 TEAEs: 16.9%
  Grade 3 TRAE electrocardiogram QT prolonged: 2 patients
  Grade 4 TEAEs: 2.4%
  Grade 5 TEAE: 1.2%
  TEAE of Grade ≥3: 20.5%
  patients with Grade 3 TRAEs: 7.2%
  patients with at least 1 TEAE: 96.4%
  patients with at least 1 TRAE: 72.3%
6 Jun 2023, N=83, 11
  SAEs: 13.3%
33 of 83 participants
  deaths: 39.8%
Patient 1, 30 mg QD, onset day 30, Not related
  SAE Procedural pain, Grade: 3
Patient 2, 250 mg BID, onset day 59, Not related
  SAE Humerus fracture, Grade: 3
Patient 3, 360 mg QD, onset day 42, Possibly related, SUSAR
  SAE Embolism venous, Grade: 3
Patient 4, 200 mg QD
  SAE Colitis, Grade: 1
  SAE Neutrophil count decreased, Grade: 4
Patient 4, 200 mg QD, onset day 79, Not related
  SAE Stomatitis, Grade: 3
Patient 5, 250 mg BID, onset day 10
  SAE Malignant pleural effusion, Grade: 3
Patient 5, 250 mg BID, onset day 26, Not related
  SAE Cardiac arrest, Grade: 5
Patient 6, 360 mg QD, onset day 54, Unlikely related
  SAE Embolism, Grade: 3
Patient 7, 500 mg QD, onset day 49, Not related
  SAE Hypoglycemia, Grade: 4
Patient 8, 100 mg QD, onset day 118, Not related
  SAE Acute kidney injury, Grade: 3
Total (N=78)
  TEAE Alanine aminotransferase increased: 8 n
  TEAE Arthralgia: 14 n
  TEAE Aspartate aminotransferase increased: 11 n
  TEAE Back pain: 13 n
  TEAE Constipation: 24 n
  TEAE Decreased appetite: 12 n
  TEAE Diarrhea: 13 n
  TEAE Dizziness: 8 n
  TEAE Fatigue: 26 n
  TEAE Headache: 13 n
  TEAE Hot flush: 11 n
  TEAE Hyperglycemia: 10 n
  TEAE Insomnia: 9 n
  TEAE Nausea: 26 n
  TEAE Pain in extremity: 10 n
  TEAE Vomiting: 14 n
  TRAE Arthralgia: 8 n
  TRAE Constipation: 10 n
  TRAE Decreased appetite: 8 n
  TRAE Fatigue: 17 n
  TRAE Hot flush: 8 n
  TRAE Nausea: 20 n
  TRAE Vomiting: 8 n
cut-off 6 Jun 2022
  Grade 4 or Grade 5 TRAEs: no Grade 4 or Grade 5 TRAEs
  patients reporting SAEs: 8 of 78 patients
  total SAEs: 11 SAEs
cut-off 6 Jun 2022, N=78
  Grade 1 TEAEs: 34.6%
  Grade 1 TRAEs: 42.3%
  Grade 2 TEAEs: 39.7%
  Grade 2 TRAEs: 21.8%
  Grade 3 TEAEs: 11.5%
  Grade 3 hypertension: 2 patients
  Grade 4 TEAEs: 3.8%
  Grade 5 TEAE: 1.3%
  TEAE of Grade ≥3: 16.7%
  patients with Grade 3 TRAEs: 5.1%
  patients with at least 1 TEAE: 91.0%
  patients with at least 1 TRAE: 69.2%
Five of 83 patients
  TEAE leading to discontinuation: 6.0%
